Experimental data as given in patent publication US20240246956A1, “CLASS IIA HISTONE DEACETYLASE (HDAC) DEGRADER LIGANDS AND METHODS OF USE THEREOF” (DANA-FARBER CANCER INSTITUTE, INC., priority 2021, published 2024).

Key:
class IIa HDACs [1] = assay: Global quantitative proteomics, change in protein abundance in Kelly cells; type: cell-based, human; conditions: 5 hours, vs DMSO, moderated t-test
Method: (§1) Cells were washed once with phosphate-buffered saline (PBS), harvested with CellstripperTM (Corning®), washed two additional times with PBS and snap frozen in liquid nitrogen. […] Proteins were precipitated using methanol/chloroform in Donovan et al., Elife 7:e38430 (2018). The precipitated protein was resuspended in 4 M Urea, 50 mM HEPES pH 7.4, followed by dilution to 1 M urea with the addition of 200 mM EPPS, pH 8. Proteins were first digested with LysC (1:50: enzyme:protein) for 12 hours at room temperature. The LysC digestion was diluted to 0.5 M Urea with 200 mM EPPS pH 8 followed by digestion with trypsin (1:50: enzyme:protein) for 6 hours at 37° C. Tandem mass tag (TMT) reagents (Thermo Fisher Scientific) were dissolved in anhydrous acetonitrile (ACN) according to manufacturer's instructions. Anhydrous ACN was added to each peptide sample to a final concentration of 30% v/v, and labeling was induced with the addition of TMT reagent to each sample at a ratio of 1:4 peptide:TMT label. The 11-plex labeling reactions were performed for 1.5 hours at room temperature and the reaction quenched by the addition of hydroxylamine to a final concentration of 0.3% for 15 minutes at room temperature. The sample channels were combined at a 1:1 ratio, desalted using C18 solid phase extraction cartridges (Waters®) and analyzed by LC-MS for channel ratio comparison. Samples were then combined using the adjusted volumes determined in the channel ratio analysis and dried down in a speed vacuum. The combined sample was then resuspended in 1% formic acid, and acidified (pH 2-3) before being subjected to desalting with C18 SPE (Sep-Pak®-, Waters®). […] Proteome Discoverer 2.2 (Thermo Fisher Scientific) was used for .RAW file processing and controlling peptide and protein level false discovery rates, assembling proteins from peptides, and protein quantification from peptides. […] TMT reporter ion intensities were measured using a 0.003 Da window around the theoretical m/z for each reporter ion in the MS3 scan. […]

HDAC7 = molecular target: T1, HDAC7 (Homo sapiens, UniProt Q8WUI4); assay: as above; type: cell-based; design: endogenous in cells; host or cells: Kelly cells; conditions: 5-hour treatment, vs DMSO, FIG. 3
T1 sequence (Q8WUI4 1-952): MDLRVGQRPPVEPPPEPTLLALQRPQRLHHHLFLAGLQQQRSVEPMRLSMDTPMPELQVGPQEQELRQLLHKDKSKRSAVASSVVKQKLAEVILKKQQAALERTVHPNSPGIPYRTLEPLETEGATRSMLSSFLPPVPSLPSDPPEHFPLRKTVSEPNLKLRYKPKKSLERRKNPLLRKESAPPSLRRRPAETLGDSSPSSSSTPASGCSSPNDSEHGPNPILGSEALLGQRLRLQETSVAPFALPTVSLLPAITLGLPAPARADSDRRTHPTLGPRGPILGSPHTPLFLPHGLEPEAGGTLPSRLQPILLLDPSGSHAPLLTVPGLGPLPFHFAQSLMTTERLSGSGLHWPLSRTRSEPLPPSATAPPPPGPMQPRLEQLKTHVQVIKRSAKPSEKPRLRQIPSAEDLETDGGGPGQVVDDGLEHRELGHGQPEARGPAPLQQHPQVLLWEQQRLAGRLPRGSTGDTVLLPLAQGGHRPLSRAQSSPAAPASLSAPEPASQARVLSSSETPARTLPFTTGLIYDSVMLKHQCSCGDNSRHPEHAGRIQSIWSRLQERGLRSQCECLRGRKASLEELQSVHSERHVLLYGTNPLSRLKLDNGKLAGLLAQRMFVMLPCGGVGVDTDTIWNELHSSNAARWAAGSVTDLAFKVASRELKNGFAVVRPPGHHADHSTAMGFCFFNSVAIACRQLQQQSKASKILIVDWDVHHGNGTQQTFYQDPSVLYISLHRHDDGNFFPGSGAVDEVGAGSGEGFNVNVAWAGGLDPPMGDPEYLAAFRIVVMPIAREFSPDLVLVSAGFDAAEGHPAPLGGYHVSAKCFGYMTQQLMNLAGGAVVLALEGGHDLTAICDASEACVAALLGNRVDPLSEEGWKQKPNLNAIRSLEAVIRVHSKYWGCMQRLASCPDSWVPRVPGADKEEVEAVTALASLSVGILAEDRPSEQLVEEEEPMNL
Method: (§2) Cells were washed once with phosphate-buffered saline (PBS), harvested with CellstripperTM (Corning®), washed two additional times with PBS and snap frozen in liquid nitrogen. […] Proteins were precipitated using methanol/chloroform in Donovan et al., Elife 7:e38430 (2018). The precipitated protein was resuspended in 4 M Urea, 50 mM HEPES pH 7.4, followed by dilution to 1 M urea with the addition of 200 mM EPPS, pH 8. Proteins were first digested with LysC (1:50: enzyme:protein) for 12 hours at room temperature. The LysC digestion was diluted to 0.5 M Urea with 200 mM EPPS pH 8 followed by digestion with trypsin (1:50: enzyme:protein) for 6 hours at 37° C. Tandem mass tag (TMT) reagents (Thermo Fisher Scientific) were dissolved in anhydrous acetonitrile (ACN) according to manufacturer's instructions. Anhydrous ACN was added to each peptide sample to a final concentration of 30% v/v, and labeling was induced with the addition of TMT reagent to each sample at a ratio of 1:4 peptide:TMT label. The 11-plex labeling reactions were performed for 1.5 hours at room temperature and the reaction quenched by the addition of hydroxylamine to a final concentration of 0.3% for 15 minutes at room temperature. The sample channels were combined at a 1:1 ratio, desalted using C18 solid phase extraction cartridges (Waters®) and analyzed by LC-MS for channel ratio comparison. Samples were then combined using the adjusted volumes determined in the channel ratio analysis and dried down in a speed vacuum. The combined sample was then resuspended in 1% formic acid, and acidified (pH 2-3) before being subjected to desalting with C18 SPE (Sep-Pak®-, Waters®). […] The 96 resulting fractions were then pooled in a non-contiguous manner into 24 fractions and these fractions were used for subsequent mass spectrometry analysis. Data were collected using an Orbitrap FusionTM LumosTM mass spectrometer (Thermo Fisher Scientific, San Jose, CA, USA) coupled with a […] pump (Thermo Fisher Scientific). Peptides were separated on an EasySprayTM ES803.rev2 75 μm inner diameter microcapillary column (ThermoFisher Scientific). Peptides were separated using a 190 min gradient of 6-27% acetonitrile in 1.0% formic acid with a flow rate of 300 nL/min. Each analysis used an MS3-based TMT method as described in McAlister et al., Anal. Chem. 86(14):7150-7158 (2014). The data were acquired using a mass range of m/z 340-1350, resolution 120,000, automatic gain control (AGC) target 1×10^6, maximum injection time 100 ms, dynamic exclusion of 120 seconds for the peptide measurements in the Orbitrap FusionTM LumosTM mass spectrometer. Data dependent MS2 spectra were acquired in the ion trap with a normalized collision energy (NCE) set at 55%, AGC target set to 1.5×10^5 and a maximum injection time of 150 ms. MS3 scans were acquired in the Orbitrap FusionTM LumosTM mass spectrometer with a higher energy collision dissociation (HCD) set to 55%, AGC target set to 1.5×10^5, maximum injection time of 150 ms, resolution at 50,000 and with a maximum synchronous precursor selection (SPS) precursors set to 10. Proteome Discoverer 2.2 (Thermo Fisher Scientific) was used for .RAW file processing and controlling peptide and protein level false discovery rates, assembling proteins from peptides, and protein quantification from peptides. MS/MS spectra were searched against a Swissprot human database (December 2016) with both the forward and reverse sequences. […] TMT reporter ion intensities were measured using a 0.003 Da window around the theoretical m/z for each reporter ion in the MS3 scan. […] Reporter ion intensities were normalized and scaled using in-house scripts in the R framework. Statistical analysis was carried out using the limma package within the R framework as described in Ritchie et al., Nucleic Acids Res. 43(7):e47 (2015).

HDAC5 = HDAC5 (Homo sapiens, UniProt Q9UQL6); assay: as above; type: cell-based; design: endogenous in cells; host or cells: Kelly cells; conditions: 5 μM, 5-hour treatment, vs DMSO, FIG. 3
HDAC5, sequence (Q9UQL6 whole entry): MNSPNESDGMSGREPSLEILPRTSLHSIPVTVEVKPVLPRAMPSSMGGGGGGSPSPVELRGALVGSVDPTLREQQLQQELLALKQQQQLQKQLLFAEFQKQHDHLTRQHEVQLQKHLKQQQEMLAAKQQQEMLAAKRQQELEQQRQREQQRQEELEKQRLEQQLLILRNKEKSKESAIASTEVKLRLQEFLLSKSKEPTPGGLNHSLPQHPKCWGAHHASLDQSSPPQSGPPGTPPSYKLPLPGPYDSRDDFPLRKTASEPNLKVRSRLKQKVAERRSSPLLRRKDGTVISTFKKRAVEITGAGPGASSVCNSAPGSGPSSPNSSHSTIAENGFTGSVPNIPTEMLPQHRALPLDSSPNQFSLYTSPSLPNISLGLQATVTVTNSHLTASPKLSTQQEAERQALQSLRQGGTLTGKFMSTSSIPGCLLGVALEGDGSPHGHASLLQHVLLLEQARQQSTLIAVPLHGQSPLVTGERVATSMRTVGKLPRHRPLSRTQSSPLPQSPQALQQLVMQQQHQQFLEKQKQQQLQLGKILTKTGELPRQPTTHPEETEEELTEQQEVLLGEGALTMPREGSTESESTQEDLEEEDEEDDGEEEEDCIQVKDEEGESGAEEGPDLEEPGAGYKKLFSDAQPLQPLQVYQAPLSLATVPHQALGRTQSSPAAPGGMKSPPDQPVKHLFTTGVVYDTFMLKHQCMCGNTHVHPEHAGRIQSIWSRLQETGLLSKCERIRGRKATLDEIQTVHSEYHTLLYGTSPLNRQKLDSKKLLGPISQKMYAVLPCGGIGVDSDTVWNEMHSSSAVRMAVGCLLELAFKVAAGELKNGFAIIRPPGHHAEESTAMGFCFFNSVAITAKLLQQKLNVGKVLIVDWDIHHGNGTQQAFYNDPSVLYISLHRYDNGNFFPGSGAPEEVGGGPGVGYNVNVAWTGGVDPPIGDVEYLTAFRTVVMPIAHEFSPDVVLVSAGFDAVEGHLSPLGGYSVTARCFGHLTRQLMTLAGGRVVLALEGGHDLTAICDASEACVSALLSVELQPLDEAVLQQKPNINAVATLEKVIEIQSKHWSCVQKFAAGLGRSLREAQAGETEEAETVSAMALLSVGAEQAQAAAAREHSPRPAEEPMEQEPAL
Method: as §2

class IIa HDACs [2] = assay: Global quantitative proteomics, change in protein abundance in MM.1S cells; type: cell-based, human; conditions: 1 μM, 5-hour treatment, vs DMSO, moderated t-test, FIG. 5
Method: as §1, with “Tandem mass tag (TMT) reagents (Thermo Fisher Scientific) were dissolved in anhydrous acetonitrile (ACN) according to manufacturer's instructions. Anhydrous ACN was added to each peptide sample to a final concentration of 30% v/v, and labeling was induced with the addition of TMT reagent to each sample at a ratio of 1:4 peptide:TMT label. The 11-plex labeling reactions were performed for 1.5 hours at room temperature and the reaction quenched by the addition of hydroxylamine to a final concentration of 0.3% for 15 minutes at room temperature.” left out, “vacuum.” for “vacuum. The combined sample was then resuspended in 1% formic acid, and acidified (pH 2-3) before being subjected to desalting with C18 SPE (Sep-Pak®-, Waters®).”

SMILES	class IIa HDAC levels (relative protein abundance) (class IIa HDACs [1]; 5 μM, FIG. 4A)	protein expression level of HDAC7 (HDAC7; 5 μM)	protein expression level of HDAC5 (HDAC5)	class IIa HDAC levels (relative protein abundance) (class IIa HDACs [1]; 1 μM, FIG. 4B-4C)	protein expression level of HDAC7 (HDAC7; 1 μM)	class IIa HDAC levels (relative protein abundance) (class IIa HDACs [2])
O=C1CCC(N2C(=O)c3cccc(NCCN4CCC(CNC(=O)c5cccc(-c6noc(C(F)(F)F)n6)c5)(c5nc(-c6ccccc6)cs5)CC4)c3C2=O)C(=O)N1 (stereo not drawn) [Compound 3, N-((1-(2-((2-(2,6-dioxopiperidin-3-yl)-1,3-dioxoisoindolin-4-yl)amino)ethyl)-4-(4-phenylthiazol-2-yl)piperidin-4-yl)methyl)-3-(5-(trifluoromethyl)-1,2,4-oxadiazol-3-yl)benzamide]	significant reduction	reduction in protein expression level	reduction in protein expression level	–	–	–
CCN(CCOCCOCCC(=O)N[C@H](C(=O)N1C[C@H](O)C[C@H]1C(=O)N[C@@H](C)c1ccc(-c2scnc2C)cc1)C(C)(C)C)C[C@@H](C)NC(=O)c1ccc(-c2noc(C(F)(F)F)n2)cc1 [Compound 17]	–	–	–	significant reduction	selective reduction in protein expression level	significant reduction
